From patent US9684238B2, “Fluorene-type compound, photopolymerization initiator comprising said fluorene-type compound, and photosensitive composition containing said photopolymerization initiator” (TOKYO OHKA KOGYO CO., LTD., priority 2012, dated 2017) come the findings set out here.

The nature of series [1]: Absorption coefficient (absorbance of 0.001% solution in tetrahydrofuran). The following applies: for Λ max (absorption maximum wavelength): 0.001% (wt/vol) in tetrahydrofuran, from 280 nm to 400 nm; for Absorption coefficient at 365 nm / Absorption coefficient at Λ max: 0.001% (wt/vol) solution in tetrahydrofuran. It counts as physicochemical. In outline: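 Absorbance of a 0.001% (wt/vol) solution in tetrahydrofuran recorded by spectrophotometer. Absorption maximum wavelength (λmax) taken from the spectrum within 280–400 nm.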

A short description of series [2]: Decomposition point by thermal analysis (TG-DTA). It counts as physicochemical. The following applies: 5.0 mg. The protocol: The compounds 1, 2, 4, 6, 8, 9, 11, 12, 13, 15, 16, D-1, D-3, D-4, D-7, D-8, D-9, D-12, D-14, D-15, D-20, C-1, and C-2 were each subjected to measurement with a thermal analysis apparatus (TG-DTA) (manufactured by Rigaku Corporation, trade name: “Thermo Plus EVO TG 8120”) by using 5.0 mg thereof.

A short description of series [3]: Solubility in PGME, PGMEA and ethyl lactate. As to conditions: for Solubility Ethyl lactate: in 100 parts by weight of ethyl lactate; for Solubility Ethyl lactate / Solubility PGMEA / Solubility PGME: room temperature; for Solubility PGMEA: in 100 parts by weight of propylene glycol monomethyl ether acetate; for Solubility PGME: in 100 parts by weight of propylene glycol monomethyl ether. It counts as physicochemical.

Series [4] is described as follows: Evaluation 1: 20-μm pattern line width of transparent photosensitive composition. The following applies: for 20-μm pattern line width: transparent composition, initiator 0.4 mmol.
Series [5] in a line: Average transmittance of composition. The format is physicochemical. The following applies: photosensitive composition, quartz cell, optical path length 1 cm. The procedure:
The average transmittance (%) of each of the photosensitive resin compositions obtained in Examples 1 to 9, Examples 2-1 to 2-10, and Comparative Examples 1 and 2 in the range of from 400 nm to 700 nm was measured with a spectrophotometer (manufactured by Hitachi High-Technologies Corporation, trade name: “U-3900H”, quartz cell, optical path length; 1 cm).

Series [6] can be described thus: Transmittance of transparent cured film. The following applies: for Average transmittance (700 nm to 400 nm) Transparent cured film / Transmittance (400 nm) Transparent cured film: cured at exposure energy quantity 80 mJ/cm^2. It counts as physicochemical. In outline:
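Films cured at 80 mJ/cm^2 exposure, otherwise prepared as in the earlier film evaluation. Spectrophotometer read in quartz cell, 1 cm path, giving transmittance (%) at 400 nm and average transmittance (%) over 400–700 nm.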

Series [7] is described as follows: Evaluation 1: 20-μm pattern line width of transparent photosensitive composition. The following applies: initiator 0.4 mmol, exposure energy quantity 30 mJ/cm^2.
Series [8] is described as follows: Evaluation 3: 20-μm pattern line width of black photosensitive composition. As to conditions: black composition (carbon black, cardo resin), initiator 0.4 mmol. Summed up: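 Composition spin-coated on glass to 1.0 μm dry thickness, dried 90 °C for 10 min, exposed at 10–80 mJ/cm^2 via high-pressure mercury lamp through 20 μm negative mask, developed in 0.1 wt % TMAH, rinsed. Line width of remaining cured film measured; larger width means higher sensitivity.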

Where [9] appears, read: exposure energy quantity 5 mJ/cm^2.
The mark [10] stands for this setting: exposure energy quantity 10 mJ/cm^2.
Where [11] appears, read: exposure energy quantity 20 mJ/cm^2.
Where [12] appears, read: exposure energy quantity 40 mJ/cm^2.
Where [13] appears, read: photopolymerization initiator containing the compound.

For `CCCC1(CCC)c2cc(C(=O)c3ccc([N+](=O)[O-])cc3)ccc2-c2ccc(C(C)=NOC(C)=O)cc21` [Compound D-7], in series [1], the “Λ max (absorption maximum wavelength)” value is 341.5 nm, the “Absorption coefficient at 365 nm” value is 21.9 mL/mg/cm and the “Absorption coefficient at Λ max” value stood at 62.9 mL/mg/cm. In series [2], this compound yielded a Decomposition point of 250.3 °C. Also, in series [3], the “Solubility Ethyl lactate” value is “D (Less than 2 parts by weight of the photopolymerization initiator is dissolved.)”, the “Solubility PGMEA” value was “D (Less than 2 parts by weight of the photopolymerization initiator is dissolved.)” and the “Solubility PGME” value was “D (Less than 2 parts by weight of the photopolymerization initiator is dissolved.)”. For the same compound, the “20-μm pattern line width” value in series [4] (setting [9]) worked out at 19.3. Besides, the “20-μm pattern line width” value in series [4] (setting [10]) is recorded as 20.2. In addition, the “20-μm pattern line width” value in series [4] (setting [11]) is reported as 20.8. Also, in series [4] (setting [12]), the “20-μm pattern line width” value worked out at 22.6. Besides, the “Average transmittance (700 nm to 400 nm) Solution” value in series [5] stood at 86.0%. In series [6], the “Average transmittance (700 nm to 400 nm) Transparent cured film” value is recorded as 99.3% and the “Transmittance (400 nm) Transparent cured film” value turned out to be 96.1%. Further, the “20-μm pattern line width” value in series [7] is on record as 21.4.

With `CCCC1(CCC)c2cc(C(=O)c3ccc([N+](=O)[O-])cc3)ccc2-c2ccc(C(=NOC(C)=O)C(C)C)cc21` (mixture of isomers) [Compound D-8], in series [1], the “Λ max (absorption maximum wavelength)” value turned out to be 335.5 nm. Moreover, the “Absorption coefficient at 365 nm” value in series [1] is 10.9 mL/mg/cm. Moreover, the “Absorption coefficient at Λ max” value in series [1] was found to be 52.1 mL/mg/cm. In series [2], this compound showed a Decomposition point of 182.6 °C. Moreover, in series [3], the “Solubility Ethyl lactate” value was “A (10 Parts by weight or more of the photopolymerization initiator is dissolved.)”. Besides, the “Solubility PGMEA” value in series [3] is “A (10 Parts by weight or more of the photopolymerization initiator is dissolved.)”. Besides, the “Solubility PGME” value in series [3] is on record as “A (10 Parts by weight or more of the photopolymerization initiator is dissolved.)”. In addition, the “solubility (in words)” value in series [3] (setting [13]) is recorded as “additionally excellent solubility”. Also, the “20-μm pattern line width” value in series [4] (setting [9]) is listed as 19.1; in series [4] (setting [10]), 19.7; in series [4] (setting [11]), 20.0; in series [4] (setting [12]), 21.9; in series [8] (10 mJ/cm^2) it was 18.7; in series [8] (20 mJ/cm^2), 18.7. Also, the “20-μm pattern line width” value in series [8] (40 mJ/cm^2) is 20.0; in series [8] (60 mJ/cm^2), 20.7; in series [8] (80 mJ/cm^2), 21.1; in series [7], 21.3. Also, the “Average transmittance (700 nm to 400 nm) Solution” value in series [5] is 87.0%. Moreover, in series [6], the “Average transmittance (700 nm to 400 nm) Transparent cured film” value was found to be 100.0%. Moreover, in series [6], the “Transmittance (400 nm) Transparent cured film” value turned out to be 98.0%. Also, the “transparency of photosensitive composition and formed product (in words)” value in series [6] (setting [13]) was “additionally excellent transparency”.

For the compound `CCCC1(CCC)c2cc(C(=NOC(C)=O)c3ccccc3)ccc2-c2ccc([N+](=O)[O-])cc21` [Compound D-1], the “Λ max (absorption maximum wavelength)” value in series [1] is 343.5 nm. Further, the “Absorption coefficient at 365 nm” value in series [1] was 33.2 mL/mg/cm. In series [1], the “Absorption coefficient at Λ max” value was determined as 54.1 mL/mg/cm. Further, in series [2], the Decomposition point came out at 273.4 °C. Further, the “Solubility Ethyl lactate” value in series [3] is “D (Less than 2 parts by weight of the photopolymerization initiator is dissolved.)”. Moreover, in series [3], the “Solubility PGMEA” value is reported as “C (An amount in the range of from 2 parts by weight or more to less than 5 parts by weight of the photopolymerization initiator is dissolved.)”. Further, the “Solubility PGME” value in series [3] is on record as “D (Less than 2 parts by weight of the photopolymerization initiator is dissolved.)”. Further, the “sensitivity to the active energy ray (in words)” value in series [4] (setting [13]) is recorded as “additionally high sensitivity to the active energy ray”. For the same compound, the “20-μm pattern line width” value in series [4] (setting [10]) was 20.2; in series [4] (setting [11]), 20.9; in series [4] (setting [12]), 22.4; in series [4] (exposure energy quantity 60 mJ/cm^2), 22.8; in series [4] (exposure energy quantity 80 mJ/cm^2), 23.1; in series [8] (10 mJ/cm^2) it was 19.4. For the same compound, the “20-μm pattern line width” value was determined as 20.4 in series [8] (20 mJ/cm^2), 21.9 in series [8] (40 mJ/cm^2), 22.3 in series [8] (60 mJ/cm^2) and 23.1 in series [8] (80 mJ/cm^2). The “Average transmittance (700 nm to 400 nm) Solution” value in series [5] is listed as 57.5%. Also, the “Average transmittance (700 nm to 400 nm) Transparent cured film” value in series [6] was 99.2%. The “Transmittance (400 nm) Transparent cured film” value in series [6] is recorded as 91.7%.
